Source: ChEMBL document CHEMBL4311995, “Discovery and development of extreme selective inhibitors of the ITD and D835Y mutant FLT3 kinases” (Eur J Med Chem, 2019)
In brackets after ≈: the same amount, converted by molar mass.

Columns and labels:
K562 = assay: cells; format: functional, cell-based; settings: Homo sapiens, K562, 72 h
cells = format: ADME, cell-based; settings: Homo sapiens, HS5, 72 h
physchem [1] = settings: buffer, pH 7.4
physchem [2] = settings: buffer, pH 2
in vitro = settings: PAMPA, pH 7.4
MV4-11 = assay: cells; format: functional, cell-based; settings: Homo sapiens, MV4-11, 72 h
U-937 = assay: cells; format: functional, cell-based; settings: Homo sapiens, U-937, 72 h

| SMILES | IC50 (K562) [µM] | IC50 (cells) [µM] | solubility kinetic at 24 h (physchem [1]) [µM] | solubility kinetic at 24 h (physchem [2]) [µM] | Papp at 5 h (in vitro) [×10⁻⁶ cm/s] | IC50 (MV4-11) [µM] | IC50 (U-937) [µM] |
| --- | --- | --- | --- | --- | --- | --- | --- |
| CSc1ccc(/C=C/c2nc(NCCN(C)C)c3ccccc3n2)cc1 | 5.21 | 4 | 116 (≈ 42.3 µg/mL) | 119 (≈ 43.4 µg/mL) | 5.86 | – | – |
| CC(C)c1ccc(/C=C/c2nc(NCCN(C)C)c3cc(F)ccc3n2)cc1 | 4.03 | 3.28 | 5 (≈ 1.89 µg/mL) | 119 (≈ 45 µg/mL) | 3.38 | 0.06 | 4.1 |
| CC(C)c1ccc(/C=C/c2nc(NCCN(C)C)c3cc(Cl)ccc3n2)cc1 | 2.87 | 3.03 | 12 (≈ 4.74 µg/mL) | 110 (≈ 43.4 µg/mL) | 0.73 | – | – |
| CCN(CC)CCCNc1nc(/C=C/c2ccc(OC)cc2)nc2ccc(Br)cc12 | 4.03 | 2.07 | 96 (≈ 45.1 µg/mL) | 96 (≈ 45.1 µg/mL) | 5.35 | – | 6.36 |
| CCN(CC)CCNc1nc(/C=C/c2ccc(S(C)(=O)=O)cc2)nc2ccc(Cl)cc12 | 2.59 | 4.09 | 12 (≈ 5.51 µg/mL) | 115 (≈ 52.8 µg/mL) | 0.56 | 0.04 | 4.95 |
| CN(C)CCNc1nc(/C=C/c2ccc(F)cc2)nc2ccccc12 | 5.81 | 6.37 | 10 (≈ 3.36 µg/mL) | 120 (≈ 40.4 µg/mL) | 9.61 | – | 10.9 |
| CN(C)CCCNc1nc(/C=C/c2ccc(S(C)(=O)=O)cc2)nc2ccc(Cl)cc12 | 4.84 | 4.03 | 23 (≈ 10.2 µg/mL) | 111 (≈ 49.4 µg/mL) | 0.61 | – | 9.02 |
| CN(C)CCNc1nc(/C=C/c2ccc(S(C)(=O)=O)cc2)nc2ccc(Cl)cc12 | 6.94 | 4.76 | 8 (≈ 3.45 µg/mL) | 112 (≈ 48.3 µg/mL) | 0.36 | – | 12.3 |
| CCN(CC)CCNc1nc(/C=C/c2ccc(C(C)C)cc2)nc2ccc(F)cc12 | 2.12 | 3.36 | 36 (≈ 14.6 µg/mL) | 120 (≈ 48.8 µg/mL) | 1.74 | – | 4.11 |
| COc1cc2c(N3CCN(C(=O)Nc4ccc(OC(C)C)cc4)CC3)ncnc2cc1OCCCN1CCCCC1 [TANDUTINIB] | 9.21 | 11.4 | – | – | – | 0.06 | 19.8 |
